According to the supplement of paper PMC10307832:

Columns and labels:
Assay in all cases: relative viability (nuclei count vs DMSO), 5 days (fraction); higher = more cells survive
NCI-H1666 = tested on: NCI-H1666
In short: (§1)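 The day after seeding in 1536-well plates, lung cancer cell lines were treated by pin tool with a single drug, or with a fixed anchor-drug dose together with five library-drug doses (not always all listed) in √10 steps. After 5 days, a combined fix-and-stain solution (final 0.05% Triton X-100, 1% formaldehyde, 1 ug/ml Hoechst) was added. Nuclei counted on 4× images gave relative viability as treated counts over vehicle counts, reported as the median of duplicate plates.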

HCC-827 = tested on: HCC-827
In short: as §1

EPLC-272H = tested on: EPLC-272H
In short: as §1

LU99A = tested on: LU99A
In short: as §1

HOP-62 = tested on: HOP-62
In short: as §1

201T = tested on: 201T
In short: as §1

LCLC-97TM1 = tested on: LCLC-97TM1
In short: as §1

H3255 = tested on: H3255
In short: as §1

NCI-H2085 = tested on: NCI-H2085
In short: as §1

EKVX = tested on: EKVX
In short: as §1

PC-3 [JPC-3] = tested on: PC-3 [JPC-3]
In short: as §1

NCI-H647 = tested on: NCI-H647
In short: as §1

NCI-H358 = tested on: NCI-H358
In short: as §1

NCI-H1975 = tested on: NCI-H1975
In short: as §1

SW 1573 = tested on: SW 1573
In short: as §1

NCI-H2087 = tested on: NCI-H2087
In short: as §1

HCC-44 = tested on: HCC-44
In short: as §1

BEN = tested on: BEN
In short: as §1

COR-L 105 = tested on: COR-L 105
In short: as §1

NCI-H1437 = tested on: NCI-H1437
In short: as §1

LOU-NH91 = tested on: LOU-NH91
In short: as §1

## NC(=O)Nc1cc(-c2cccc(F)c2)sc1C(=O)N[C@H]1CCCNC1 [AZD7762] + C[C@@H](Oc1cc(-c2cnn(C3CCNCC3)c2)cnc1N)c1c(Cl)ccc(F)c1Cl [Crizotinib] (partner 1 µM)
NCI-H1666; first compound 0.01 µM
  relative viability: 1.58
NCI-H1666; first compound 0.03162 µM
  relative viability: 1.16
NCI-H1666; first compound 0.1 µM
  relative viability: 1.23
NCI-H1666; first compound 0.3162 µM
  relative viability: 0.993
NCI-H1666; first compound 1 µM
  relative viability: 0.695
HCC-827; first compound 0.01 µM
  relative viability: 0.948
HCC-827; first compound 0.03162 µM
  relative viability: 0.904
HCC-827; first compound 0.1 µM
  relative viability: 0.933
HCC-827; first compound 0.3162 µM
  relative viability: 0.965
HCC-827; first compound 1 µM
  relative viability: 0.843
EPLC-272H; first compound 0.01 µM
  relative viability: 0.895
EPLC-272H; first compound 0.03162 µM
  relative viability: 1.11
EPLC-272H; first compound 0.1 µM
  relative viability: 0.967
EPLC-272H; first compound 0.3162 µM
  relative viability: 0.859
EPLC-272H; first compound 1 µM
  relative viability: 0.75
LU99A; first compound 0.01 µM
  relative viability: 0.725
LU99A; first compound 0.03162 µM
  relative viability: 0.67
LU99A; first compound 0.1 µM
  relative viability: 0.602
LU99A; first compound 0.3162 µM
  relative viability: 0.587
LU99A; first compound 1 µM
  relative viability: 0.228
HOP-62; first compound 0.01 µM
  relative viability: 0.786
HOP-62; first compound 0.03162 µM
  relative viability: 1.03
HOP-62; first compound 0.1 µM
  relative viability: 1.17
HOP-62; first compound 0.3162 µM
  relative viability: 1.1
HOP-62; first compound 1 µM
  relative viability: 1.16
201T; first compound 0.01 µM
  relative viability: 0.969
201T; first compound 0.03162 µM
  relative viability: 1.02
201T; first compound 0.1 µM
  relative viability: 1.03
201T; first compound 0.3162 µM
  relative viability: 1.04
201T; first compound 1 µM
  relative viability: 1.16
LCLC-97TM1; first compound 0.01 µM
  relative viability: 0.385
LCLC-97TM1; first compound 0.03162 µM
  relative viability: 0.337
LCLC-97TM1; first compound 0.1 µM
  relative viability: 0.317
LCLC-97TM1; first compound 0.3162 µM
  relative viability: 0.448
LCLC-97TM1; first compound 1 µM
  relative viability: 0.334
H3255; first compound 0.01 µM
  relative viability: 0.997
H3255; first compound 0.03162 µM
  relative viability: 0.88
H3255; first compound 0.1 µM
  relative viability: 0.891
H3255; first compound 0.3162 µM
  relative viability: 0.867
H3255; first compound 1 µM
  relative viability: 0.42
NCI-H2085; first compound 0.01 µM
  relative viability: 1.01
NCI-H2085; first compound 0.03162 µM
  relative viability: 0.889
NCI-H2085; first compound 0.1 µM
  relative viability: 0.839
NCI-H2085; first compound 0.3162 µM
  relative viability: 0.853
NCI-H2085; first compound 1 µM
  relative viability: 0.644
EKVX; first compound 0.01 µM
  relative viability: 0.875
EKVX; first compound 0.03162 µM
  relative viability: 1.03
EKVX; first compound 0.1 µM
  relative viability: 0.874
EKVX; first compound 0.3162 µM
  relative viability: 0.798
EKVX; first compound 1 µM
  relative viability: 0.412
PC-3 [JPC-3]; first compound 0.01 µM
  relative viability: 0.999
PC-3 [JPC-3]; first compound 0.03162 µM
  relative viability: 0.962
PC-3 [JPC-3]; first compound 0.1 µM
  relative viability: 1.01
PC-3 [JPC-3]; first compound 0.3162 µM
  relative viability: 1.02
PC-3 [JPC-3]; first compound 1 µM
  relative viability: 0.903
NCI-H647; first compound 0.01 µM
  relative viability: 1.15
NCI-H647; first compound 0.03162 µM
  relative viability: 1.11
NCI-H647; first compound 0.1 µM
  relative viability: 0.941
NCI-H647; first compound 0.3162 µM
  relative viability: 0.546
NCI-H647; first compound 1 µM
  relative viability: 0.105
NCI-H358; first compound 0.01 µM
  relative viability: 0.743
NCI-H358; first compound 0.03162 µM
  relative viability: 0.695
NCI-H358; first compound 0.1 µM
  relative viability: 0.581
NCI-H358; first compound 0.3162 µM
  relative viability: 0.521
NCI-H358; first compound 1 µM
  relative viability: 0.202
NCI-H1975; first compound 0.01 µM
  relative viability: 1.06
NCI-H1975; first compound 0.03162 µM
  relative viability: 0.937
NCI-H1975; first compound 0.1 µM
  relative viability: 0.837
NCI-H1975; first compound 0.3162 µM
  relative viability: 0.903
NCI-H1975; first compound 1 µM
  relative viability: 0.638
SW 1573; first compound 0.01 µM
  relative viability: 0.976
SW 1573; first compound 0.03162 µM
  relative viability: 0.879
SW 1573; first compound 0.1 µM
  relative viability: 0.907
SW 1573; first compound 0.3162 µM
  relative viability: 0.934
SW 1573; first compound 1 µM
  relative viability: 0.738
NCI-H2087; first compound 0.01 µM
  relative viability: 0.906
NCI-H2087; first compound 0.03162 µM
  relative viability: 0.879
NCI-H2087; first compound 0.1 µM
  relative viability: 1.02
NCI-H2087; first compound 0.3162 µM
  relative viability: 0.825
NCI-H2087; first compound 1 µM
  relative viability: 0.846
HCC-44; first compound 0.01 µM
  relative viability: 0.892
HCC-44; first compound 0.03162 µM
  relative viability: 0.808
HCC-44; first compound 0.1 µM
  relative viability: 0.854
HCC-44; first compound 0.3162 µM
  relative viability: 0.787
HCC-44; first compound 1 µM
  relative viability: 0.745
BEN; first compound 0.01 µM
  relative viability: 0.911
BEN; first compound 0.03162 µM
  relative viability: 0.924
BEN; first compound 0.1 µM
  relative viability: 0.827
BEN; first compound 0.3162 µM
  relative viability: 0.859
BEN; first compound 1 µM
  relative viability: 0.616
COR-L 105; first compound 0.01 µM
  relative viability: 0.877
COR-L 105; first compound 0.03162 µM
  relative viability: 0.772
COR-L 105; first compound 0.1 µM
  relative viability: 0.591
COR-L 105; first compound 0.3162 µM
  relative viability: 0.406
COR-L 105; first compound 1 µM
  relative viability: 0.271
NCI-H1437; first compound 0.01 µM
  relative viability: 0.955
NCI-H1437; first compound 0.03162 µM
  relative viability: 0.787
NCI-H1437; first compound 0.1 µM
  relative viability: 1.01
NCI-H1437; first compound 0.3162 µM
  relative viability: 0.869
NCI-H1437; first compound 1 µM
  relative viability: 1.02
LOU-NH91; first compound 0.01 µM
  relative viability: 0.764
LOU-NH91; first compound 0.03162 µM
  relative viability: 0.731
LOU-NH91; first compound 0.1 µM
  relative viability: 0.746
LOU-NH91; first compound 0.3162 µM
  relative viability: 0.76
LOU-NH91; first compound 1 µM
  relative viability: 0.546
